These are literature values, as cited in patent publication US8362253B2, “Solid forms of N-[2,4-bis(1,1-dimethylethyl)-5-hydroxyphenyl]-1,4-dihydro-4-oxoquinoline-3-carboxamide” (Vertex Pharmaceutical Incorporated, priority 2007, dated 2013).

The test system of the data set is cystic fibrosis transmembrane conductance regulator (CFTR) protein. The conditions noted are these: cells from patients with CF, CFTR present on the cell surface; background statement.

Turning to `CC(C)(C)c1cc(C(C)(C)C)c(NC(=O)c2c[nH]c3ccccc3c2=O)cc1O` [Compound 1, N-[2,4-bis(1,1-dimethylethyl)-5-hydroxyphenyl]-1,4-dihydro-4-oxoquinoline-3-carboxamide], the “Function of defective CFTR channels” value was “restored the function of defective CFTR channels”.
